Bridge positions count the residues as written; N and C are the ends. Square brackets hold non-standard residues; d marks the D form. Ends that are not written are not given here. Met(O) = CS(=O)CC[C@H](N)C(=O)O
Tests used:
Assay type in all cases: in vivo, Kunming white mice
normal mice [1] = assay: Hypoglycemic effect of polypeptides on normal mice after tail vein injection (Example 4); conditions: 1 mg/mL at 0.05 ml/10 g, single tail vein injection; for Blood glucose level prior to administration: baseline
normal mice [2] = assay: Polypeptide vs insulin on normal mice after tail vein injection (Example 10)
normal mice [3] = assay: Hypoglycemic effect on normal mice after subcutaneous injection (Example 6); conditions: for Blood glucose level at 15 min after administration / Blood glucose level at 30 min after administration / Blood glucose level prior to administration: 1 mg/mL at 0.05 ml/10 g, single subcutaneous injection on the back; for Blood glucose level prior to administration: baseline
normal mice [4] = assay: Natural extract vs solid-phase synthetic polypeptide, normal mice, subcutaneous injection (Example 7); conditions: 1 mg/mL at 0.05 ml/10 g, single subcutaneous injection on the back
normal mice [5] = assay: Hypoglycemic effect of synthetic polypeptides on normal mice after subcutaneous injection (Example 9); conditions: 1 mg/mL at 0.05 ml/10 g, single subcutaneous injection on the back
[6] = single tail vein injection, polypeptide 2 mg/mL at 0.05 ml/10 g (10 mg/kg), insulin 0.5 U/mL (2.5 U/kg)

ASCNGVCSPFEMoxPPCGTSACRCIPVGLVIGYCRNPSG (ASCNGVCSPFE[Met(O)]PPCGTSACRCIPVGLVIGYCRNPSG; disulfide 15-32, 3-20, 7-22; listed as Pisum sativum) [SEQ ID No. 4]
Blood glucose level at 15 min after administration (normal mice [1]): 6.9 ± 0.4 mmol/L | Blood glucose level at 30 min after administration (normal mice [1]): 4.6 ± 0.3 mmol/L | Blood glucose level prior to administration (normal mice [1]): 7.5 ± 0.5 mmol/L

ISCNGVCSPFDIPPCGSPLCRCIPAGLVIGNCRNPYG (disulfide 15-32, 3-20, 7-22; listed as Pisum sativum) [SEQ ID No. 11]
hypoglycemic effect compared with insulin (normal mice [2]; polypeptide 10 mg/kg vs insulin 2.5 U/kg, tail vein injection): the same hypoglycemic effect on normal mice as insulin | Blood glucose level at 15 min after administration (normal mice [2]; [6]): 4.1 ± 0.3 mmol/L | Blood glucose level at 30 min after administration (normal mice [2]; [6]): 2.8 ± 0.2 mmol/L | Blood glucose level at 45 min after administration (normal mice [2]; [6]): 2.2 ± 0.1 mmol/L | Blood glucose level at 60 min after administration (normal mice [2]; [6]): 2.0 ± 0.1 mmol/L | Blood glucose level prior to administration (normal mice [2]; single tail vein injection, polypeptide 2 mg/mL at 0.05 ml/10 g (10 mg/kg), insulin 0.5 U/mL (2.5 U/kg), baseline): 8.2 ± 0.5 mmol/L

ASCNGVCSPFEMPPCGSSACRCIPVGLVVGYCRHPSG (listed as Pisum sativum) [SEQ ID No. 72, extracted polypeptide with H at position 34, outside general formula (I); raised blood glucose]
Blood glucose level at 15 min after administration (normal mice [3]): 8.91 ± 0.7 mmol/L | Blood glucose level at 30 min after administration (normal mice [3]): 10.4 ± 0.8 mmol/L | Blood glucose level prior to administration (normal mice [3]): 7.3 ± 0.6 mmol/L | hypoglycemic activity (conclusion) (normal mice [3]; normal mice, subcutaneous injection): no hypoglycemic activity

ASCNGVCSPFEMPPCGTSACRCIPVGLVVGYCRNPSG [Polypeptide A] (disulfide 15-32, 3-20, 7-22; listed as Pisum sativum)
Blood glucose level at 15 min after administration (normal mice [4]): 5.2 ± 0.4 mmol/L | Blood glucose level at 30 min after administration (normal mice [4]): 4.4 ± 0.5 mmol/L | Blood glucose level at 45 min after administration (normal mice [4]): 3.6 ± 0.3 mmol/L | Blood glucose level at 60 min after administration (normal mice [4]): 2.2 ± 0.2 mmol/L | Blood glucose level prior to administration (normal mice [4]; baseline): 6.8 ± 0.5 mmol/L

ASCNGVCSPFEMPPCGSSACRCIPVGLVVGYCRNPSG (disulfide 15-32, 3-20, 7-22) [SEQ ID No. 26]
Blood glucose level at 15 min after administration (normal mice [3]): 5.3 ± 0.4 mmol/L | Blood glucose level at 30 min after administration (normal mice [3]): 4.4 ± 0.3 mmol/L | Blood glucose level prior to administration (normal mice [3]): 7.1 ± 0.5 mmol/L | Blood glucose level at 15 min after administration (normal mice [5]): 5.3 ± 0.4 mmol/L | Blood glucose level at 30 min after administration (normal mice [5]): 4.6 ± 0.3 mmol/L | Blood glucose level at 45 min after administration (normal mice [5]): 3.2 ± 0.2 mmol/L | Blood glucose level at 60 min after administration (normal mice [5]): 2.1 ± 0.2 mmol/L | Blood glucose level prior to administration (normal mice [5]; baseline): 6.8 ± 0.3 mmol/L

ASCNGVCSPFEMPPCGSSACRCIPVGLLIGYCRNPSG (disulfide 15-32, 3-20, 7-22; listed as Pisum sativum) [SEQ ID No. 5]
Blood glucose level at 15 min after administration (normal mice [1]): 6.3 ± 0.3 mmol/L | Blood glucose level at 30 min after administration (normal mice [1]): 5.3 ± 0.3 mmol/L | Blood glucose level prior to administration (normal mice [1]): 7.1 ± 0.5 mmol/L

Source: patent publication US20200038478A1, “POLYPEPTIDE AND COMPOSITION THEREOF FOR TREATING DISEASES OF METABOLIC SYSTEM” (WUHAN GRECTECH CO., LTD., priority 2017, published 2020)
